Where two headings read alike, the source gives them in different places.
Tested on: NCI 60 cancer cell lines
Assay: NCI anticancer screening over a panel of 60 cancer cells, single concentration 10 µM
Assay type: cell-based, human
Settings: Homo sapiens, read-out: % Growth Inhibition (GI %)
In short: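 Run under the NCI Compound Evaluation Branch protocol, each compound was tested once at 10 µM. The panel comprised 60 cancer cell lines of diverse tissue origin, including leukemia, lung, colon, CNS, renal, ovarian, breast and prostate.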

[1] = A549, Non-small cell lung cancer A549/ATCC, 10 μM
[2] = BT-549, Breast cancer BT-549, 10 μM
[3] = CAKI-1, Renal cancer CAKI-1, 10 μM
[4] = CCRF-CEM, Leukemia CCRF-CEM, 10 μM
[5] = COLO 205, Colon cancer COLO 205, 10 μM
[6] = DU-145, Prostate cancer DU-145, 10 μM
[7] = HCC 2998, Colon cancer HCC-2998, 10 μM
[8] = HCT-15, Colon cancer HCT-15, 10 μM
[9] = HCT-116, Colon cancer HCT-116, 10 μM
[10] = HOP-62, Non-small cell lung cancer HOP-62, 10 μM
[11] = HOP-92, Non-small cell lung cancer HOP-92, 10 μM
[12] = HT-29, Colon cancer HT29, 10 μM
[13] = Hs-578T, Breast cancer HS 578T, 10 μM
[14] = IGROV-1, Ovarian cancer IGROV1, 10 μM
[15] = LOX IMVI, Melanoma LOX IMVI, 10 μM
[16] = MCF7, Breast cancer MCF7, 10 μM
[17] = MDA-MB-231, Breast cancer MDA-MB-231/ATCC, 10 μM
[18] = MDA-MB-435, Melanoma MDA-MB-435, 10 μM
[19] = MDA-MB-468, Breast cancer MDA-MB-468, 10 μM
[20] = NCI-H23, Non-small cell lung cancer NCI-H23, 10 μM
[21] = NCI-H226, Non-small cell lung cancer NCI-H226, 10 μM
[22] = NCI-H322M, Non-small cell lung cancer NCI-H322M, 10 μM
[23] = NCI-H460, Non-small cell lung cancer NCI-H460, 10 μM
[24] = NCI-H522, Non-small cell lung cancer NCI-H522, 10 μM
[25] = NCI/ADR-RES, Ovarian cancer NCI/ADR-RES, 10 μM
[26] = OVCAR-4, Ovarian cancer OVCAR-4, 10 μM
[27] = OVCAR-5, Ovarian cancer OVCAR-5, 10 μM
[28] = RPMI-8226, Leukemia RPMI-8226, 10 μM
[29] = RXF 393, Renal cancer RXF 393, 10 μM
[30] = SF-268, CNS Cancer SF-268, 10 μM
[31] = SF-295, CNS Cancer SF-295, 10 μM
[32] = SF-539, CNS Cancer SF-539, 10 μM
[33] = SK-MEL-2, Melanoma SK-MEL-2, 10 μM
[34] = SK-MEL-5, Melanoma SK-MEL-5, 10 μM
[35] = SK-MEL-28, Melanoma SK-MEL-28, 10 μM
[36] = SK-OV-3, Ovarian cancer SK-OV-3, 10 μM
[37] = SN12C, Renal cancer SN12C, 10 μM
[38] = SNB-19, CNS Cancer SNB-19, 10 μM
[39] = SNB-75, CNS Cancer SNB-75, 10 μM
[40] = SW-620, Colon cancer SW-620, 10 μM
[41] = T47D, Breast cancer T-47D, 10 μM
[42] = TK-10, Renal cancer TK-10, 10 μM
[43] = UACC-62, Melanoma UACC-62, 10 μM
[44] = UACC-257, Melanoma UACC-257, 10 μM
[45] = UO-31, Renal cancer UO-31, 10 μM

C/C(=N\Nc1ccc(S(N)(=O)=O)cc1)c1cnn(-c2cc(=O)[nH]c3ccccc23)c1C [Compound 4a, (E)-4-(2-(1-(5-methyl-1-(2-oxo-1,2-dihydroquinolin-4-yl)-1H-pyrazol-4-yl)ethylidene) hydrazineyl)benzenesulfonamide]
inhibition at 10 µM (786-0, Renal cancer 786-0, 10 μM): 11.6%
inhibition at 10 µM [1]: < 5%
inhibition at 10 µM (ACHN, Renal cancer ACHN, 10 μM): < 5%
inhibition at 10 µM [2]: 34.3%
inhibition at 10 µM [3]: 5.51%
inhibition at 10 µM [4]: 7.82%
inhibition at 10 µM [5]: < 5%
inhibition at 10 µM [6]: < 5%
inhibition at 10 µM [7]: < 5%
inhibition at 10 µM [8]: < 5%
inhibition at 10 µM [9]: < 5%
inhibition at 10 µM (HL-60, Leukemia HL-60(TB), 10 μM): < 5%
inhibition at 10 µM [10]: 7.49%
inhibition at 10 µM [11]: < 5%
inhibition at 10 µM [12]: < 5%
inhibition at 10 µM [13]: 19.4%
inhibition at 10 µM [14]: < 5%
inhibition at 10 µM (K562, Leukemia K-562, 10 μM): < 5%
inhibition at 10 µM (KM12, Colon cancer KM12, 10 μM): < 5%
inhibition at 10 µM [15]: 5.22%
inhibition at 10 µM (Leukemia SR, 10 μM): 12.7%
inhibition at 10 µM [16]: 13.9%
inhibition at 10 µM [17]: 17.7%
inhibition at 10 µM [18]: < 5%
inhibition at 10 µM [19]: 24.8%
inhibition at 10 µM (MOLT-4, Leukemia MOLT-4, 10 μM): < 5%
inhibition at 10 µM (Melanoma MALM-3M, 10 μM): 30.1%
inhibition at 10 µM [20]: < 5%
inhibition at 10 µM [21]: 14.7%
inhibition at 10 µM [22]: 6.78%
inhibition at 10 µM [23]: < 5%
inhibition at 10 µM [24]: 18.9%
inhibition at 10 µM [25]: < 5%
inhibition at 10 µM [26]: 11.4%
inhibition at 10 µM [27]: < 5%
inhibition at 10 µM (OVCAR-8, Ovarian cancer OVCAR-8, 10 μM): < 5%
inhibition at 10 µM (Prostate cancer PC-3, 10 μM): 8.46%
inhibition at 10 µM [28]: 11.2%
inhibition at 10 µM [29]: < 5%
inhibition at 10 µM [30]: 14%
inhibition at 10 µM [31]: 5.93%
inhibition at 10 µM [32]: 8.96%
inhibition at 10 µM [33]: 12%
inhibition at 10 µM [34]: 8.23%
inhibition at 10 µM [35]: 6.43%
inhibition at 10 µM [36]: < 5%
inhibition at 10 µM [37]: < 5%
inhibition at 10 µM [38]: 9.13%
inhibition at 10 µM [39]: 10.1%
inhibition at 10 µM [40]: < 5%
inhibition at 10 µM [41]: 24.7%
inhibition at 10 µM [42]: < 5%
inhibition at 10 µM (U-251, CNS Cancer U251, 10 μM): 7.57%
inhibition at 10 µM [43]: 8.54%
inhibition at 10 µM [44]: < 5%
inhibition at 10 µM [45]: 22.6%

C/C(=N\Nc1ccc(S(N)(=O)=O)cc1)c1cnn(-c2cc(=O)[nH]c3ccc(C)cc23)c1C [Compound 4b, (E)-4-(2-(1-(5-methyl-1-(6-methyl-2-oxo-1,2-dihydroquinolin-4-yl)-1H-pyrazol-4-yl)ethylidene)hydrazineyl)benzenesulfonamide]
inhibition at 10 µM (A498, Renal cancer A498, 10 μM): 5.79%
inhibition at 10 µM [1]: < 5%
inhibition at 10 µM (ACHN, Renal cancer ACHN, 10 μM): < 5%
inhibition at 10 µM [2]: < 5%
inhibition at 10 µM [3]: 5.35%
inhibition at 10 µM [4]: 16%
inhibition at 10 µM [5]: < 5%
inhibition at 10 µM [6]: < 5%
inhibition at 10 µM (EKVX, Non-small cell lung cancer EKVX, 10 μM): < 5%
inhibition at 10 µM [7]: < 5%
inhibition at 10 µM [8]: < 5%
inhibition at 10 µM [9]: < 5%
inhibition at 10 µM [10]: 9.34%
inhibition at 10 µM [11]: < 5%
inhibition at 10 µM [12]: < 5%
inhibition at 10 µM [13]: 14.4%
inhibition at 10 µM [14]: < 5%
inhibition at 10 µM (K562, Leukemia K-562, 10 μM): 9.72%
inhibition at 10 µM [15]: 13%
inhibition at 10 µM (Leukemia SR, 10 μM): 40.3%
inhibition at 10 µM [16]: 16.1%
inhibition at 10 µM [17]: 18.8%
inhibition at 10 µM [18]: 8.01%
inhibition at 10 µM [19]: 41.7%
inhibition at 10 µM (MOLT-4, Leukemia MOLT-4, 10 μM): 16.1%
inhibition at 10 µM (Melanoma M14, 10 μM): < 5%
inhibition at 10 µM (Melanoma MALM-3M, 10 μM): 16.4%
inhibition at 10 µM [20]: < 5%
inhibition at 10 µM [21]: 15.9%
inhibition at 10 µM [22]: < 5%
inhibition at 10 µM [23]: < 5%
inhibition at 10 µM [24]: 27.9%
inhibition at 10 µM [25]: < 5%
inhibition at 10 µM [26]: 11.4%
inhibition at 10 µM [27]: < 5%
inhibition at 10 µM (Prostate cancer PC-3, 10 μM): 9.56%
inhibition at 10 µM [28]: < 5%
inhibition at 10 µM [29]: 9.76%
inhibition at 10 µM [30]: 13.3%
inhibition at 10 µM [31]: 11.1%
inhibition at 10 µM [32]: 16.9%
inhibition at 10 µM [33]: 7.35%
inhibition at 10 µM [34]: 9.87%
inhibition at 10 µM [35]: < 5%
inhibition at 10 µM [36]: < 5%
inhibition at 10 µM [37]: 5.72%
inhibition at 10 µM [38]: 12.6%
inhibition at 10 µM [39]: 12.2%
inhibition at 10 µM [40]: < 5%
inhibition at 10 µM [41]: 27.3%
inhibition at 10 µM [42]: < 5%
inhibition at 10 µM (U-251, CNS Cancer U251, 10 μM): 13%
inhibition at 10 µM [43]: 19.2%
inhibition at 10 µM [44]: < 5%
inhibition at 10 µM [45]: 11.7%

From article PMC12638379, “An innovative approach to development of new pyrazolylquinolin-2-one hybrids as dual EGFR and BRAF^V600E inhibitors” (Molecular Diversity, 2025)
